Data published in publication PMC10067601, “Identification of a peptide ligand for human ALDH3A1 through peptide phage display: Prediction and characterization of protein interaction sites and inhibition of ALDH3A1 enzymatic activity” (Frontiers in Molecular Biosciences, 2023).

Biological target: T1, human recombinant ALDH3A1 (Homo sapiens, UniProt P30838)
T1 construct: 6xHis (C); made in house; host or cells: E. coli, with chaperone co-expression (pG-KJE8 plasmid)
T1 sequence (P30838 1-453): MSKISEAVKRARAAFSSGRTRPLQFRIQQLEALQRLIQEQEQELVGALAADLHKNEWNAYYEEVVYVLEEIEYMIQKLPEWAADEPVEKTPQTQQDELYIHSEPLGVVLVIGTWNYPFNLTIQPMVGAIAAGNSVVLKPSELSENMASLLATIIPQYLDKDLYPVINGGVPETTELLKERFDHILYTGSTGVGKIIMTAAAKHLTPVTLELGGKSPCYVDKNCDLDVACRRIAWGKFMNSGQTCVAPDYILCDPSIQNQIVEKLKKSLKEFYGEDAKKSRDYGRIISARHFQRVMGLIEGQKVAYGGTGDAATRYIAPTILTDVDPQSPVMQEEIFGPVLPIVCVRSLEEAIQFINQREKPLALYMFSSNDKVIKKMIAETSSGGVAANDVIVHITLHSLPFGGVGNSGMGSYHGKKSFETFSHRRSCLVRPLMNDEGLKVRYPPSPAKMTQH
Assay: ALDH3A1 enzymatic assay, benzaldehyde oxidation
Type: biochemical
Conditions: for Enzymatic activity, % of control (Mean%): 40 μM CB29; for Enzymatic activity, % of control (Mean%) / Enzymatic Activity, AVERAGE of triplicates: mean of n = 3
Procedure: The ability of ALDH3A1 to oxidize benzaldehyde in the presence of P1 was estimated by monitoring the production of NADH as described earlier with minor modifications ([Voulgaridou et al., 2013]). Human recombinant ALDH3A1 was combined with P1 and diluted in Milli-Q water, at 1:1,000. The final reaction was placed in a 0.5 mL quartz cuvette containing 50 mM Tris-HCl pH 8.5, 50 mM 2-Mercaptoethanol, 1.5 mM […], 20 nM ALDH3A1, 20 μM P1, and 1 mM Benzaldehyde. The reaction was initiated by the addition of the benzaldehyde substrate and was monitored at 340 nm for 5 min using a spectrophotometer (Libra S22, Biochrom Ltd, Cambridge, United Kingdom). In the case of CB29, the final reaction contained 40 μM CB29. Enzymatic activity was calculated as dOD/dT∗molarextinctioncoeiffcient∗pathcorrection∗enzyme^′sconcentrationinfinalreaction where, dT = minutes, molar extinction coefficient = 6220 M^-1/cm, path correction = 1 cm.
All experiments were conducted in triplicates and presented as % of the control’s enzymatic activity. As a control, the final reaction contained the respective Milli-Q water volume without P1 or CB29.
At least three independent experiments were performed for each condition tested. The values are expressed as the mean ± standard deviation (SD). Statistical analysis was performed with Graph Pad Prism software (version 9.4.1) (Graph Pad Inc., La Jolla, CA, United States). For all assays, statistical differences between groups were evaluated either by Student’s t-test or ANOVA, for multiple comparisons, followed by Dunnett’s or Tukey’s test. A level of p < 0.01 was considered statistically significant.

[1] = 20 μM P1 (n = 4) or 40 μM CB29 (n = 3)

CC(=O)Nc1ccc(Nc2ccc(S(C)(=O)=O)cc2[N+](=O)[O-])cc1 [CB29, reference compound]
Enzymatic activity, % of control, AVERAGE of experiments (20 μM P1 (4 experiments) or 40 μM CB29 (3 experiments), 1 mM benzaldehyde, 20 nM ALDH3A1, pH 8.5, 340 nm, 5 min): 52.9548% | 25% Percentile, % of control activity [1]: 47.24 | 75% Percentile, % of control activity [1]: 56.68 | Lower 95% CI of mean, % of control activity [1]: 40.48 | Maximum, % of control activity [1]: 56.68 | Mean, % of control activity [1]: 52.95 | Median, % of control activity [1]: 54.95 | Minimum, % of control activity [1]: 47.24 | Upper 95% CI of mean, % of control activity [1]: 65.43 | Enzymatic activity, % of control (Mean%) (CB29 Exp1, 1 mM benzaldehyde, 20 nM ALDH3A1, pH 8.5, 340 nm): 56.6779% | Enzymatic activity, % of control (Mean%) (CB29 Exp2, 1 mM benzaldehyde, 20 nM ALDH3A1, pH 8.5, 340 nm): 54.9455% | Enzymatic activity, % of control (Mean%) (CB29 Exp3, 1 mM benzaldehyde, 20 nM ALDH3A1, pH 8.5, 340 nm): 47.241% | Enzymatic Activity, AVERAGE of triplicates (CB29 Exp1, 40 μM): 7.722 µmol/min/mg | Enzymatic Activity, AVERAGE of triplicates (CB29 Exp2, 40 μM): 6.9085 µmol/min/mg | Enzymatic Activity, AVERAGE of triplicates (CB29 Exp3, 40 μM): 7.406 µmol/min/mg | 95,00% CI of diff, control vs. compound (Dunnett's multiple comparisons, 20 μM P1 or 40 μM CB29): 37,23 to 56,86 | Mean Diff, control vs. compound (Dunnett's multiple comparisons, 20 μM P1 or 40 μM CB29, % of control activity): 47.05
